Data from US9586966B2, “Piperazino[1,2-a]indol-1-ones and [1,4]diazepino[1,2-a]indol-one” (Hoffmann-La Roche Inc., priority 2013, dated 2017).

Experiments:
[1] = system: human embryonic stem cell derived neural stem cells (NSCs); assay: Neural stem cell proliferation assay (neurogenesis assay, ATP levels by CellTiterGlo); type: cell-based; details: 96 h, concentration at which 150% activity of control (100%) is reached, NSC proliferation, ATP levels after 4 days incubation, dose response 8 μM to 8 nM
Protocol: Neural Stem Cell Proliferation Assay
Neurogenic properties of small molecules are determined based on the proliferation of human embryonic stem cell derived neural stem cells (NSCs) which were derived via a dual smad inhibition as previously described (Chambers, S. M., et al., Highly efficient neural conversion of human ES and iPS cells by dual inhibition of SMAD signaling, Nature biotechnology, 2009. 27(3): p. 275-80.)
Compounds respond is measured by the increase in cells based on ATP levels (Promega:CellTiterGlo®) after an incubation period of 4 days.
NSCs are thawed and expanded over 3 passages. On the 14th day, NSCs are seeded in Polyornithin/Laminin coated 384 well plates at a cell density of 21′000 cells/cm^2 in a media volume of 38 μl. 4 hours after cell seeding, compound solutions are added at a volume of 2 μl. Stock solutions of the compounds (water, 5% DMSO) are diluted to obtain a dose response (11 points, dilution factor is 2), ranging from 8 μM to 8 nM. Controls are run to consistently determine the neurogenic properties of the cells:
Negative (neutral) control is cell culture Media (final DMSO concentration: 0.25%).
1. cell culture Media+100 ng/ml FGF2 (final DMSO concentration: 0.1%)
2. cell culture Media+20 ng/ml EGF (final DMSO concentration: 0.1%)
3. cell culture Media+100 ng/ml Wnt3a (final DMSO concentration: 0.1%)
After 4 days incubation at 37° C., 5% CO2, the amount of ATP per well is quantified. The ATP concentration is proportional to the cell number. ATP is quantified by using the Promega CellTiterGlo® kit. The CellTiterGlo® reagents contain a cell lysis buffer, a thermo stable luciferase (UltraGlo™ recombinant luciferase), magnesium and luciferin. Luciferin reacts with ATP producing oxyluciferin, AMP and light. The luminescence signal is proportional to the ATP content.
The value of negative (neutral) control is determined for each assay plate by taking the average of 16 negative control wells. The neurogenic compound response is calculated for each compound as (compound/Negative Control)*100.
The values of EC150 from the dose response curve are determined for each test compound. The EC150 is the compound concentration at which 150% activity of control (100%) is reached.

Structure (SMILES)	melting point [°C]	EC (150% of control) [1] [µM]
CC(C)Cc1cc(F)cc2cc3n(c12)CCCNC3=O [Example 22, 9-Fluoro-7-isobutyl-2,3,4,5-tetrahydro-[1,4]diazepino[1,2-a]indol-1-one]	157	0.11
Cc1c2n(c3c(CC(C)C)cc(Cl)cc13)CCCNC2=O [Example 38, 9-Chloro-11-methyl-7-(2-methylpropyl)-2,3,4,5-tetrahydro-[1,4]diazepino[1,2-a]indol-1-one]	176	0.37
Cc1c2n(c3c(OCC(F)(F)F)cc(F)cc13)CCNC2=O [Example 24, 8-Fluoro-10-methyl-6-(2,2,2-trifluoroethoxy)-3,4-dihydro-2H-pyrazino[1,2-a]indol-1-one]	239	0.17
Cc1cc(Cl)cc2cc3n(c12)CCNC3=O [Example 27, 8-Chloro-6-methyl-3,4-dihydro-2H-pyrazino[1,2-a]indol-1-one]	263	5.1
Cc1c2n(c3c(CCC(C)C)cc(F)cc13)CCNC2=O [Example 12, 8-Fluoro-10-methyl-6-(3-methyl-butyl)-3,4-dihydro-2H-pyrazino[1,2-a]indol-1-one]	161	0.07
CCc1cc(F)cc2c(C)c3n(c12)CCNC3=O [Example 8, 6-Ethyl-8-fluoro-10-methyl-3,4-dihydro-2H-pyrazino[1,2-a]indol-1-one]	177	0.019
COc1cc(CC(C)C)c2c(c1)cc1n2CCNC1=O [Example 36, 8-Methoxy-6-(2-methylpropyl)-3,4-dihydro-2H-pyrazino[1,2-a]indol-1-one]	175	4.1
N#Cc1cc(N2CCS(=O)(=O)CC2)c2c(c1)cc1n2CCCNC1=O [Example 43, 7-(1,1-Dioxo-1,4-thiazinan-4-yl)-1-oxo-2,3,4,5-tetrahydro-[1,4]diazepino[1,2-a]indole-9-carbonitrile]	404.5	0.98
Cc1c2n(c3c(Cc4ccc(F)cc4)cc(F)cc13)CCNC2=O [Example 15, 8-Fluoro-6-(4-fluoro-benzyl)-10-methyl-3,4-dihydro-2H-pyrazino[1,2-a]indol-1-one]	178	0.16
Cc1c2n(c3c(N4CCOCC4)cc(Cl)cc13)CCNC2=O [Example 18, 8-Chloro-10-methyl-6-morpholin-4-yl-3,4-dihydro-2H-pyrazino[1,2-a]indol-1-one]	207	0.039
Cc1c2n(c3c(CC(C)C)cc(C#N)cc13)CCCNC2=O [Example 34, 11-Methyl-7-(2-methylpropyl)-1-oxo-2,3,4,5-tetrahydro-[1,4]diazepino[1,2-a]indole-9-carbonitrile]	235	0.13
Cc1cc(Cl)cc2cc3n(c12)CCCNC3=O [Example 28, 9-Chloro-7-methyl-2,3,4,5-tetrahydro-[1,4]diazepino[1,2-a]indol-1-one]	207	4.1
N#Cc1cc(N2CCOCC2)c2c(c1)cc1n2CCCNC1=O [Example 45, 7-Morpholin-4-yl-1-oxo-2,3,4,5-tetrahydro-[1,4]diazepino[1,2-a]indole-9-carbonitrile]	221	0.24
Cc1cc(C)c2c(c1)cc1n2CCNC1=O [Example 33, 6,8-Dimethyl-3,4-dihydro-2H-pyrazino[1,2-a]indol-1-one]	253	4.9
Cc1c2n(c3c(N4CCOCC4)cc(C#N)cc13)CCNC2=O [Example 41, 10-Methyl-6-morpholin-4-yl-1-oxo-3,4-dihydro-2H-pyrazino[1,2-a]indole-8-carbonitrile]	276	0.092
Cc1cc(F)cc2cc3n(c12)CCCNC3=O [Example 1, 9-Fluoro-7-methyl-2,3,4,5-tetrahydro-[1,4]diazepino[1,2-a]indol-1-one]	198	0.21
CC(C)Cc1cc(C#N)cc2cc3n(c12)CCCNC3=O [Example 40, 7-(2-Methylpropyl)-1-oxo-2,3,4,5-tetrahydro-[1,4]diazepino[1,2-a]indole-9-carbonitrile]	199	0.55
Cc1c2n(c3c(CC(C)C)cc(Cl)cc13)CCNC2=O [Example 14, 8-Chloro-6-isobutyl-10-methyl-3,4-dihydro-2H-pyrazino[1,2-a]indol-1-one]	199	0.19
